# Experimental data as given in US20060172993A1 (priority 2002, published 2006).
# System: Patients diagnosed with Alzheimer's Disease
# Assay: Adverse events / safety monitoring in the trial
# Assay type: in vivo, human
# Protocol: Subjects in the Placebo group received 21 weeks (5 months) of placebo medication.
# The safety of the drug was also monitored throughout the study. Blood samples for biochemistry and haematology and random urine sample for urinalysis were taken at each visit and at completion for all efficacy testing. Systolic and diastolic blood pressure were measured in the sitting position, pulse and vital signs were recorded at each visit.
compound,measurement,setting,value
"COc1ccc2c3c1O[C@H]1C[C@@H](O)C=C[C@@]31CCN(C)C2 [GAL, galantamine]","Adverse event Agitation, % of patients",8 mg/day,(15.0%)
same,"Adverse event Agitation, number of patients",8 mg/day,21
same,"Adverse event Anorexia, % of patients",8 mg/day,(5.7%)
same,"Adverse event Anorexia, number of patients",8 mg/day,8
same,"Adverse event Depression, % of patients",8 mg/day,(2.9%)
same,"Adverse event Depression, number of patients",8 mg/day,4
same,"Adverse event Diarrhea, % of patients",8 mg/day,(5.0%)
same,"Adverse event Diarrhea, number of patients",8 mg/day,7
same,"Adverse event Dizziness, % of patients",8 mg/day,(5.0%)
same,"Adverse event Dizziness, number of patients",8 mg/day,7
same,"Adverse event Dyspepsia, % of patients",8 mg/day,(2.9%)
same,"Adverse event Dyspepsia, number of patients",8 mg/day,4
same,"Adverse event Edema peripheral, % of patients",8 mg/day,(6.4%)
same,"Adverse event Edema peripheral, number of patients",8 mg/day,9
same,"Adverse event Fall, % of patients",8 mg/day,(7.9%)
same,"Adverse event Fall, number of patients",8 mg/day,11
same,"Adverse event Headache, % of patients",8 mg/day,(3.6%)
same,"Adverse event Headache, number of patients",8 mg/day,5
same,"Adverse event Injury, % of patients",8 mg/day,(3.6%)
same,"Adverse event Injury, number of patients",8 mg/day,5
same,"Adverse event Nausea, % of patients",8 mg/day,(5.7%)
same,"Adverse event Nausea, number of patients",8 mg/day,8
same,"Adverse event Rhinitis, % of patients",8 mg/day,(6.4%)
same,"Adverse event Rhinitis, number of patients",8 mg/day,9
same,"Adverse event Urinary tract infection, % of patients",8 mg/day,(7.9%)
same,"Adverse event Urinary tract infection, number of patients",8 mg/day,11
same,"Adverse event Vomiting, % of patients",8 mg/day,(3.6%)
same,"Adverse event Vomiting, number of patients",8 mg/day,5
same,"Adverse event Weight decrease, % of patients",8 mg/day,(1.4%)
same,"Adverse event Weight decrease, number of patients",8 mg/day,2
same,"Adverse event of clinical interest Bradycardia, % of patients",8 mg/day,(3.6%)
same,"Adverse event of clinical interest Bradycardia, number of patients",8 mg/day,5
same,"Adverse event of clinical interest Convulsions, number of patients",8 mg/day,0
same,"Adverse event of clinical interest Fatigue, % of patients",8 mg/day,(2.1%)
same,"Adverse event of clinical interest Fatigue, number of patients",8 mg/day,3
same,"Adverse event of clinical interest Muscle weakness, % of patients",8 mg/day,(0.7%)
same,"Adverse event of clinical interest Muscle weakness, number of patients",8 mg/day,1
same,"Adverse event of clinical interest Syncope, % of patients",8 mg/day,(1.4%)
same,"Adverse event of clinical interest Syncope, number of patients",8 mg/day,2
same,"Serious adverse event Abdominal pain, % of patients",8 mg/day,(0.0%)
same,"Serious adverse event Abdominal pain, number of patients",8 mg/day,0
same,"Serious adverse event Agitation, % of patients",8 mg/day,(1.4%)
same,"Serious adverse event Agitation, number of patients",8 mg/day,2
same,"Serious adverse event Asthenia, % of patients",8 mg/day,(0.0%)
same,"Serious adverse event Asthenia, number of patients",8 mg/day,0
same,"Serious adverse event Basal cell carcinoma, % of patients",8 mg/day,(0.0%)
same,"Serious adverse event Basal cell carcinoma, number of patients",8 mg/day,0
same,"Serious adverse event Breast neoplasm female, % of patients",8 mg/day,(0.0%)
same,"Serious adverse event Breast neoplasm female, number of patients",8 mg/day,0
same,"Serious adverse event Cardiac failure, % of patients",8 mg/day,(0.0%)
same,"Serious adverse event Cardiac failure, number of patients",8 mg/day,0
same,"Serious adverse event Dehydration, % of patients",8 mg/day,(0.0%)
same,"Serious adverse event Dehydration, number of patients",8 mg/day,0
same,"Serious adverse event Diarrhea, % of patients",8 mg/day,(0.0%)
same,"Serious adverse event Diarrhea, number of patients",8 mg/day,0
same,"Serious adverse event Dyspnea, % of patients",8 mg/day,(0.0%)
same,"Serious adverse event Dyspnea, number of patients",8 mg/day,0
same,"Serious adverse event Fall, % of patients",8 mg/day,(2.9%)
same,"Serious adverse event Fall, number of patients",8 mg/day,4
same,"Serious adverse event Gi haemorrhage, % of patients",8 mg/day,(0.0%)
same,"Serious adverse event Gi haemorrhage, number of patients",8 mg/day,0
same,"Serious adverse event Injury, % of patients",8 mg/day,(0.7%)
same,"Serious adverse event Injury, number of patients",8 mg/day,1
same,"Serious adverse event Myocardial infarction, % of patients",8 mg/day,(2.1%)
same,"Serious adverse event Myocardial infarction, number of patients",8 mg/day,3
same,"Serious adverse event Nausea, % of patients",8 mg/day,(0.0%)
same,"Serious adverse event Nausea, number of patients",8 mg/day,0
same,"Serious adverse event Pneumonia, % of patients",8 mg/day,(0.7%)
same,"Serious adverse event Pneumonia, number of patients",8 mg/day,1
same,"Serious adverse event Sepsis, % of patients",8 mg/day,(0.0%)
same,"Serious adverse event Sepsis, number of patients",8 mg/day,0
same,"Serious adverse event Surgical intervention, % of patients",8 mg/day,(0.0%)
same,"Serious adverse event Surgical intervention, number of patients",8 mg/day,0
same,"Serious adverse event Syncope, % of patients",8 mg/day,(0.7%)
same,"Serious adverse event Syncope, number of patients",8 mg/day,1
same,"Serious adverse event Thrombophlebitis deep, % of patients",8 mg/day,(0.0%)
same,"Serious adverse event Thrombophlebitis deep, number of patients",8 mg/day,0
same,"Serious adverse event Transient ischemic attack, % of patients",8 mg/day,(0.7%)
same,"Serious adverse event Transient ischemic attack, number of patients",8 mg/day,1
same,"Serious adverse event Urinary tract infection, % of patients",8 mg/day,(0.7%)
same,"Serious adverse event Urinary tract infection, number of patients",8 mg/day,1
same,"Serious adverse event Vomiting, % of patients",8 mg/day,(0.0%)
same,"Serious adverse event Vomiting, number of patients",8 mg/day,0
same,"Total patients with any SAE, %",8 mg/day,(10.0%)
same,"Total patients with any SAE, number",8 mg/day,14
same,"Adverse event Agitation, % of patients",16 mg/day,(10.0%)
same,"Adverse event Agitation, number of patients",16 mg/day,28
same,"Adverse event Anorexia, % of patients",16 mg/day,(6.5%)
same,"Adverse event Anorexia, number of patients",16 mg/day,18
same,"Adverse event Depression, % of patients",16 mg/day,(8.6%)
same,"Adverse event Depression, number of patients",16 mg/day,24
same,"Adverse event Diarrhea, % of patients",16 mg/day,(12.2%)
same,"Adverse event Diarrhea, number of patients",16 mg/day,34
same,"Adverse event Dizziness, % of patients",16 mg/day,(5.4%)
same,"Adverse event Dizziness, number of patients",16 mg/day,15
same,"Adverse event Dyspepsia, % of patients",16 mg/day,(4.7%)
same,"Adverse event Dyspepsia, number of patients",16 mg/day,13
same,"Adverse event Edema peripheral, % of patients",16 mg/day,(2.9%)
same,"Adverse event Edema peripheral, number of patients",16 mg/day,8
same,"Adverse event Fall, % of patients",16 mg/day,(5.05%)
same,"Adverse event Fall, number of patients",16 mg/day,14
same,"Adverse event Headache, % of patients",16 mg/day,(6.8%)
same,"Adverse event Headache, number of patients",16 mg/day,19
same,"Adverse event Injury, % of patients",16 mg/day,(4.3%)
same,"Adverse event Injury, number of patients",16 mg/day,12
same,"Adverse event Nausea, % of patients",16 mg/day,(13.3%)
same,"Adverse event Nausea, number of patients",16 mg/day,37
same,"Adverse event Rhinitis, % of patients",16 mg/day,(3.2%)
same,"Adverse event Rhinitis, number of patients",16 mg/day,9
same,"Adverse event Urinary tract infection, % of patients",16 mg/day,(8.2%)
same,"Adverse event Urinary tract infection, number of patients",16 mg/day,23
same,"Adverse event Vomiting, % of patients",16 mg/day,(6.1%)
same,"Adverse event Vomiting, number of patients",16 mg/day,17
same,"Adverse event Weight decrease, % of patients",16 mg/day,(5.4%)
same,"Adverse event Weight decrease, number of patients",16 mg/day,15
same,"Adverse event of clinical interest Bradycardia, % of patients",16 mg/day,(2.5%)
same,"Adverse event of clinical interest Bradycardia, number of patients",16 mg/day,7
same,"Adverse event of clinical interest Convulsions, number of patients",16 mg/day,0
same,"Adverse event of clinical interest Fatigue, % of patients",16 mg/day,(3.6%)
same,"Adverse event of clinical interest Fatigue, number of patients",16 mg/day,10
same,"Adverse event of clinical interest Muscle weakness, % of patients",16 mg/day,(1.1%)
same,"Adverse event of clinical interest Muscle weakness, number of patients",16 mg/day,3
same,"Adverse event of clinical interest Syncope, % of patients",16 mg/day,(1.8%)
same,"Adverse event of clinical interest Syncope, number of patients",16 mg/day,5
same,"Serious adverse event Abdominal pain, % of patients",16 mg/day,(0.7%)
same,"Serious adverse event Abdominal pain, number of patients",16 mg/day,2
same,"Serious adverse event Agitation, % of patients",16 mg/day,(0.4%)
same,"Serious adverse event Agitation, number of patients",16 mg/day,1
same,"Serious adverse event Asthenia, % of patients",16 mg/day,(0.7%)
same,"Serious adverse event Asthenia, number of patients",16 mg/day,2
